The source made the active and inactive calls. No cut-off for these calls is given here.
Legend:
[1] = molecular target: UDP-N-acetylglucosamine 1-carboxyvinyltransferase (Escherichia coli K-12, UniProt P0A749); assay: Inhibition of Escherichia coli K12 Mur A in presence of UNAG
[2] = system: UDP-N-acetylglucosamine 1-carboxyvinyltransferase (Escherichia coli K-12), P0A749 [C115D]; assay: Inhibition of Escherichia coli K12 Mur A C115D at 50 uM in presence of UNAG
[3] = molecular target: UDP-N-acetylglucosamine 1-carboxyvinyltransferase (Pseudomonas aeruginosa (strain ATCC 15692 / PAO1 / 1C / PRS 101 / LMG12228), UniProt Q9HVW7); assay: Inhibition of Pseudomonas aeruginosa PAO1293 MurA in presence of UNAG
[4] = Inhibition of MurA at 10 uM; conditions: TDE = time-dependent effect
[5] = Inhibition of MurA at 5 uM; conditions: TDE = time-dependent effect

Chain of UDP-N-acetylglucosamine 1-carboxyvinyltransferase (Escherichia coli K-12, UniProt P0A749) (P0A749 whole entry): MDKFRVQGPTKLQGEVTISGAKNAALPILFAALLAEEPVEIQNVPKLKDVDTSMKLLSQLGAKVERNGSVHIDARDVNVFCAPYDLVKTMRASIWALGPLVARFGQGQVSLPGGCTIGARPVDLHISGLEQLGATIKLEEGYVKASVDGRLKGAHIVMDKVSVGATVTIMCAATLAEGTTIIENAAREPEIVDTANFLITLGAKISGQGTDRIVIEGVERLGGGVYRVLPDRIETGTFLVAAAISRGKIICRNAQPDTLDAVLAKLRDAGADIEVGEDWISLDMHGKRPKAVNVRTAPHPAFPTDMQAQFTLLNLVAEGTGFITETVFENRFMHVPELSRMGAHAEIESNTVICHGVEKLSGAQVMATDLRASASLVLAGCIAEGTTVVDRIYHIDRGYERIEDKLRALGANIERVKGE
Chain of UDP-N-acetylglucosamine 1-carboxyvinyltransferase (Pseudomonas aeruginosa (strain ATCC 15692 / PAO1 / 1C / PRS 101 / LMG12228), UniProt Q9HVW7) (Q9HVW7 whole entry): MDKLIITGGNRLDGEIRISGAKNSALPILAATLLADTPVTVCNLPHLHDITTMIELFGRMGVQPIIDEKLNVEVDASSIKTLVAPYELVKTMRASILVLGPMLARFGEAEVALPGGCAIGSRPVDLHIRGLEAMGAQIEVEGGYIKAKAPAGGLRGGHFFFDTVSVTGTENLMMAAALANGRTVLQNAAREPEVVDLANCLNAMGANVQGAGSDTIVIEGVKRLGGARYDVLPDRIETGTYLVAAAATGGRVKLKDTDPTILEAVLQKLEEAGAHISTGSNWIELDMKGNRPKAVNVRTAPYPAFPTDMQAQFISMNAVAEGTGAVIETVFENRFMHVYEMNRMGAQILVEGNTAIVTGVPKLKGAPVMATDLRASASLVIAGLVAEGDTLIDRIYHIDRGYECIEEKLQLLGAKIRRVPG
Chain of UDP-N-acetylglucosamine 1-carboxyvinyltransferase (Escherichia coli K-12), P0A749 [C115D] (P0A749 whole entry C115D): as the sequence (P0A749 whole entry) above, with C115D counted along it

| IC50 [1] | Activity [2] | IC50 [3] | SMILES | Activity [4] | Activity [5] |
| --- | --- | --- | --- | --- | --- |
| > 50 µM | inactive | > 50 µM | C=C1C(=O)O[C@@H]2C[C@@]3(C)CCC[C@H](C)C3=C[C@H]12 [HELENINE] | – | – |
| > 50 µM | inactive | 27.8 µM | C=C1C(=O)O[C@@H]2C3O[C@]3(C)CC/C=C(\C)CC[C@@H]12 (some centres undefined) | – | – |
| > 50 µM | – | > 50 µM | C=C1C(=O)O[C@@H]2/C=C(\C)CC/C=C(\C)CC[C@@H]12 (stereo in doubt; 7) [COSTUNOLIDE] | – | – |
| 16.7 µM | inactive | 10.3 µM | C=C1C(=O)O[C@@H]2/C=C(\CO)CC/C=C(\C)C[C@H](OC(=O)C(=C)[C@H](O)CO)[C@@H]12 [CNICIN] | – | tde |
| – | inactive | – | C=C1C(=O)O[C@@H]2/C=C(\C)CC/C=C(\C)CC[C@@H]12 (stereo in doubt; 7) | – | – |
| > 50 µM | inactive | > 50 µM | C=C1C(=O)O[C@@H]2[C@@H]1CC[C@]1(C)CCC=C(C)[C@@H]21 | – | – |
| – | inactive | – | C=C1C(=O)O[C@@H]2/C=C(\C)CC/C=C(\C)CC[C@@H]12 (stereo in doubt; 10) | – | – |
| > 50 µM | – | > 50 µM | C=C1C(=O)O[C@@H]2/C=C(\C)CC/C=C(\C)CC[C@@H]12 (stereo in doubt; 10) [COSTUNOLIDE] | – | – |

| SMILES | IC50 [1] | Activity [2] | IC50 [3] | Activity [4] | Activity [5] |
| --- | --- | --- | --- | --- | --- |
| C=C1CC[C@H]2C(=C)CC[C@H]3C(=C)C(=O)O[C@@H]3[C@@H]12 [DEHYDROCOSTUSLACTONE] | > 50 µM | inactive | > 50 µM | – | – |
| C=C1C(=O)O[C@@H]2/C=C(\C)CC/C=C(/C)C[C@@H](OC(=O)/C(=C/CO)CO)[C@@H]12 [EUPATORIOPICRIN] | 32.7 µM | inactive | 19.8 µM | tde | – |
| C[C@@H]1O[C@@H]1P(=O)(O)O [FOSFOMYCIN] | 0.118 µM | inactive | 10.5 µM | – | tde |
| C=C(CO)C(=O)O[C@H]1CC(=C)[C@@H]2C[C@H](O)C(=C)[C@@H]2[C@H]2OC(=O)C(=C)[C@@H]21 [CYNAROPICRIN] | 19.5 µM | inactive | 12.1 µM | – | tde |
